Measured values reported in US4816459A, “Tetrazolyl-substituted pyrido[1,2-a]pyrimidines and use as SRS-A antagonists” (Tokyo Tanabe Co. Ltd., priority 1985, dated 1989).
In brackets after ≈: the same amount, converted by molar mass. Where a name gives a salt, the structure may show the parent alone.

Tests used:
leukotriene D4 = test: Antagonistic effect on leukotriene D4 in excised guinea pig terminal ileum (in vitro, inhibition of contraction); assay type: cell-based, guinea pig (male, Hartley strain); details: Cavia porcellus, leukotriene D4 0.3 ng/ml, 50% inhibition of contraction
Protocol: Specifically, the terminal ileum was suspended, under aerated conditions, in 10 ml of Tyrode's solution containing 5×10^-7 M atropine and 1×10^-6 M mepyramine. Then, a test compound and leukotriene D4 (manufactured by Wako Junyaku Co., Ltd.) were successively added thereto with an interval of 30 seconds.
Specifically, at varying concentrations of each test compound, the percent inhibition of contraction was calculated from the measured degree of contraction of the ileum according to the following equation: [formula] On the basis of the data thus obtained, a dose-response curve was prepared and used to determine the IC50 value of the test compound.

[1] = test system: leukotriene D4-induced airway constriction reaction; test: Inhibition of leukotriene D4-induced Type I allergic reaction (airway constriction), Konzett-Rossler procedure, intravenous injection; assay type: in vivo, guinea pig (male, Hartley strain); details: Cavia porcellus, 2 min, leukotriene D4 0.5 μg/kg i.v. 2 minutes later, 50% inhibition of airway constriction, read-out: Inhibitory effect on Type I allergic reaction ID50 (intravenous)
Protocol: (§1) Using male guinea pigs of the Hartley strain, weighing about 400 g, in groups of six, the inhibitory effect of the present compounds [I] and physiologically acceptable salts thereof on a Type I allergic reaction induced by leukotriene D4 was tested in two dosage forms (i.e., by intravenous injection and by oral administration) according to the Konzett-Rossler procedure [Naunyn-Schmiederbergs Archiv fur Experimentelle Pathologie und Pharmakologie, Vol. 195, p. 71, 1940]. Specifically, each guinea pig was anesthetized by intraperitoneal administration of 1.5 g/kg of urethane and an incision was made in the neck to expose the trachea. To the exposed trachea was connected a respirator (with a ventilation volume of 5-7 ml, a respiration rate of 70 per minute, and a pulmonary load pressure of 10 cmH2 O; manufactured by Ugo Basile Biological Research Apparatus Co.) by way of a cannula. The volume of air overflowing through the branch of the cannula was measured by means of a Model 7020 Bronchospasm Transducer (manufactured by Ugo Basile Biological Research Apparatus Co.) and recorded with a Model RM-6000 Polygraph (manufactured by Nippon Koden Co., Ltd.).
Intravenous injection tests were carried out as follows: Each guinea pig was treated by intravenous injection of 1 mg/kg of gallamine triethiodide. Then, 20.0 to 6000.0 μg/kg of a test compound and 0.5 μg/kg of leukotriene D4 were successively administered thereto through the cervical vein with an interval of 2 minutes. The volume of air overflowing as a result of the induced airway constriction reaction was measured. The test compound was used in the form of a solution in physiological saline containing sodium hydrogen carbonate or potassium carbonate.
(§2) Both in the intravenous injection tests and in the oral administration tests, leukotriene D4 was used in the form of a solution in physiological saline.
(§3) Both in the intravenous injection tests and in the oral administration tests, the pharmacological effect on the Type I allergic reaction was evaluated in terms of the dose of the test compound at which the airway constriction reaction induced by leukotriene D4 was inhibited by 50% (hereinafter referred to as ID50), provided that ID50 was expressed in μg/kg for the intravenous injection tests and in mg/kg for the oral administration tests. […] On the basis of the data thus obtained, a dose-response curve was prepared and used to determine the ID50 value of the test compound.
(§4) Among the test compounds indicated, the compounds of Examples 1, 6 and 9 used in the intravenous injection tests were prepared according to procedure a described in the respective examples, and those used in the oral administration tests were prepared according to procedure b.

[2] = test system: leukotriene D4-induced airway constriction reaction; test: Inhibition of leukotriene D4-induced Type I allergic reaction (airway constriction), Konzett-Rossler procedure, oral administration; assay type: in vivo, guinea pig (male, Hartley strain); details: Cavia porcellus; oral 90 minutes before anesthesia; leukotriene D4 0.5 μg/kg i.v.; 50% inhibition of airway constriction; read-out: Inhibitory effect on Type I allergic reaction ID50 (oral)
Protocol: as §1
Oral administration tests were carried out as follows: 1 to 30 mg/kg of a test compound was orally administered to each guinea pig 90 minutes before anesthesia with urethane. Then, the anesthetized guinea pig was treated by intravenous injection of 1 mg/kg of gallamine triethiodide and administration of 0.5 μg/kg of leukotriene D4 through the cervical vein. The volume of air overflowing as a result of the induced airway constriction reaction was measured.
as §2, §3, §4

[3] = Acute toxicity (LD50) in mice; details: mouse, in vivo, 5-weeks-old male ddY strain mice
Protocol: (§5) The acute toxicity (LD50) of several typical examples of the present compounds [I] and physiologically acceptable salts thereof was tested on 5-weeks-old male ddY strain mice and male SD strain rats. For this purpose, the compounds of Examples 1, 6 and 9 were selected as typical examples. […] For rats, their LD50 values were not less than 4.0 g/kg when administered orally, and not less than 200 mg/kg when administered intravenously.

[4] = Acute toxicity (LD50) in rats; details: rat, in vivo, male SD strain rats
Protocol: as §5

[5] = test system: SRS-A as represented by leukotriene D4; test: Confirmatory experiment: antagonistic effect on SRS-A as represented by leukotriene D4; details: confirmatory experiment by the inventors
SRS-A = details: Japanese Journal of Allergology 1984; cited from earlier work
[6] = intravenous, read-out: LD50, intravenous, mice
[7] = oral, read-out: LD50, oral, mice
[8] = intravenous, read-out: LD50, intravenous, rats
[9] = oral, read-out: LD50, oral, rats

Row | Compound | IC50 (leukotriene D4) [µg/mL] | ED50 [1] [mg/kg] | ED50 [2] [mg/kg] | LD50 [3, 6] [mg/kg] | LD50 [3, 7] [mg/kg] | LD50 [4, 8] [mg/kg] | LD50 [4, 9] [mg/kg] | antagonistic effect on SRS-A as represented by leukotriene D4 (in words) [5] | type of SRS-A drug (in words) (SRS-A)
1 | CCCc1c(OCc2cc(Br)cn3c(=O)c(CCc4nnn[nH]4)cnc23)ccc(C(C)=O)c1O [Example 11, 9-[(4-acetyl-3-hydroxy-2-n-propylphenoxy)methyl]-7-bromo-3-[2-(1H-tetrazol-5yl)ethyl]-4H-pyrido[1,2-a]pyrimidin-4-one] | 0.9 (≈ 1.71 µM) | 2.9 |  |  |  |  |  |  | 
2 | CCCc1c(OCc2cccn3c(=O)c(CCc4nnn[nH]4)cnc23)ccc(C(C)=O)c1O [Example 9, 9-[(4-acetyl-3-hydroxy-2-n-propylphenoxy)methyl]-3-[2-(1H-tetrazol-5-yl)ethyl]-4H-pyrido[1,2-a]pyrimidin-4-one] | 0.005 (≈ 0.0111 µM) | 0.038 | 5 | ≥ 100 | ≥ 4000 | ≥ 200 | ≥ 4000 |  | 
3 | CCCc1c(OCc2cccn3c(=O)c(Cc4nnn[nH]4)cnc23)ccc(C(C)=O)c1O [Example 6, 9-[(4-acetyl-3-hydroxy-2-n-propylphenoxy)methyl]-3-[(1H-tetrazol-5-yl)methyl]-4H-pyrido[1,2-a]pyrimidin-4-one] | 0.01 (≈ 0.023 µM) | 0.11 | 10 | ≥ 100 | ≥ 4000 | ≥ 200 | ≥ 4000 |  | 
4 | Cc1cccn2c(=O)c(-c3nnn[nH]3)cnc12.[K] [Compound TBX, 9-Methyl-3-(1H-tetrazol-5-yl)-4H-pyrido[1,2-a]pyrimidin-4-one potassium salt, reference compound] | 200 | ≥ 10 |  |  |  |  |  | no antagonistic effect | belongs to the SRS-A release suppression type
5 | CCCc1c(OCc2cccn3c(=O)c(-c4nnn[nH]4)cnc23)ccc(C(C)=O)c1O [Example 1, 9-[(4-acetyl-3-hydroxy-2-n-propylphenoxy)methyl]-3-(1H-tetrazol-5-yl)-4H-pyrido[1,2-a]-pyrimidin-4-one] | 0.03 (≈ 0.0714 µM) | 0.097 | 9 | ≥ 100 | ≥ 4000 | ≥ 200 | ≥ 4000 |  | 

More lines, main results first:

Row | IC50 (leukotriene D4) [µg/mL] | Compound | ED50 [1] [mg/kg] | ED50 [2] [mg/kg] | LD50 [3, 6] [mg/kg] | LD50 [3, 7] [mg/kg] | LD50 [4, 8] [mg/kg] | LD50 [4, 9] [mg/kg] | antagonistic effect on SRS-A as represented by leukotriene D4 (in words) [5] | type of SRS-A drug (in words) (SRS-A)
6 | 1 (≈ 2 µM) | CCCc1c(OCc2cc(Br)cn3c(=O)c(-c4nnn[nH]4)cnc23)ccc(C(C)=O)c1O [Example 4, 9-[(4-acetyl-3-hydroxy-2-n-propylphenoxy)methyl]-7-bromo-3-(1H-tetrazol-5-yl)-4H-pyrido[1,2-a]pyrimidin-4-one] | 4.9 |  |  |  |  |  |  | 
7 | 0.6 (≈ 1.34 µM) | CCCc1c(OCc2ccn3c(=O)c(CCc4nnn[nH]4)cnc3c2)ccc(C(C)=O)c1O [Example 10, 8-[(4-acetyl-3-hydroxy-2-n-propylphenoxy)methyl]-3-[2-(1H-tetrazol-5-yl)ethyl]-4H-pyrido[1,2-a]pyrimidin-4-one] |  |  |  |  |  |  |  | 
8 | 0.7 (≈ 1.56 µM) | CCCc1c(OCc2cc(C)cn3c(=O)c(Cc4nnn[nH]4)cnc23)ccc(C(C)=O)c1O [Example 8, 9-[(4-acetyl-3-hydroxy-2-n-propylphenoxy)methyl]-7-methyl-3-[(1H-tetrazol-5-yl)methyl]-4H-pyrido[1,2-a]pyrimidin-4-one] | 1.9 |  |  |  |  |  |  | 
9 | 0.1 (≈ 0.23 µM) | CCCc1c(OCc2ccc3ncc(Cc4nnn[nH]4)c(=O)n3c2)ccc(C(C)=O)c1O [Example 7, 7-[(4-acetyl-3-hydroxy-2-n-propylphenoxy)methyl]-3-[(1H-tetrazol-5-yl)methyl]-4H-pyrido[1,2-a]pyrimidin-4-one] |  |  |  |  |  |  |  | 
10 | 0.8 (≈ 1.84 µM) | CCCc1c(OCc2cc(C)cn3c(=O)c(-c4nnn[nH]4)cnc23)ccc(C(C)=O)c1O [Example 5, 9-[(4-acetyl-3-hydroxy-2-n-propylphenoxy)methyl]-7-methyl-3-(1H-tetrazol-5-yl)-4H-pyrido[1,2-a]pyrimidin-4-one] |  |  |  |  |  |  |  | 
11 | 0.2 (≈ 0.476 µM) | CCCc1c(OCc2ccn3c(=O)c(-c4nnn[nH]4)cnc3c2)ccc(C(C)=O)c1O [Example 3, 8-[(4-acetyl-3-hydroxy-2-n-propylphenoxy)methyl]-3-(1H-tetrazol-5-yl)-4H-pyrido[1,2-a]pyrimidin-4-one] | 0.17 |  |  |  |  |  |  | 
12 | 0.03 | CCCc1c(OCc2cccn3c(=O)c(-c4nn[nH]n4)cnc23)ccc(C(C)=O)c1O [Example 12, 9-[(4-acetyl-3-hydroxy-2-n-propylphenoxy)methyl]-3-(1H-tetrazol-5-yl)-4H-pyrido[1,2-a]pyrimidin-4-one potassium salt] | 0.097 | 10 |  |  |  |  |  | 
13 | 0.1 (≈ 0.238 µM) | CCCc1c(OCc2ccc3ncc(-c4nnn[nH]4)c(=O)n3c2)ccc(C(C)=O)c1O [Example 2, 7-[(4-acetyl-3-hydroxy-2-n-propylphenoxy)methyl]-3-(1H-tetrazol-5-yl)-4H-pyrido[1,2-a]pyrimidin-4-one] | 0.16 |  |  |  |  |  |  | 
